Reference: publication PMC8795738, “The Tarantula Venom Peptide Eo1a Binds to the Domain II S3-S4 Extracellular Loop of Voltage-Gated Sodium Channel NaV1.8 to Enhance Activation” (Frontiers in Pharmacology, 2022)
Where a SMILES comes first, the peptide text is derived from it. Bridges are numbered along the chain shown (N, C = ends).

Tests used:
[1] = test system: NaV1.3; assay: I-V protocol, whole-cell patch-clamp, NaV1.3; type: cell-based, human; settings: Eo1a 10 μM
Protocol: (§1) Human Embryonic Kidney (HEK) 293 cells stably expressing human NaV1.1 to NaV1.7/β1 (SB Drug Discovery, Glasgow, United Kingdom), Chinese Hamster Ovary (CHO) cells stably expressing human NaV1.8/β3 in a tetracycline-inducible system (ChanTest, Cleveland, OH, United States), and HEK293 cells stably expressing rat transient receptor potential vanilloid 1 (TRPV1) were cultured as previously described ([Yin et al., 2020]). Human KV2.1 and NaV1.7 mutants were transiently transfected into HEK293 cells stably expressing β1/β2 using Lipofectamine 2000 (Thermo Fisher Scientific, Scoresby, VIC, Australia) and used for patch-clamp experiments 48 h after transfection. Cells were grown in an incubator at 37°C with 5% CO2 and passaged every 3–4 d (at 70–80% confluency) using TrypLE Express (Thermo Fisher Scientific).
(§2) Automated whole-cell patch-clamp recordings were performed with a QPatch-16 automated electrophysiology platform (Sophion Bioscience, Ballerup, Denmark) using single-hole (QPlate 16 with a standard resistance of 2 ± 0.4 MΩ) or multi-hole (QPlate 16X with a standard resistance 0.2 ± 0.04 MΩ, NaV1.8 only) as previously described ([McMahon et al., 2020]).
(§3) The extracellular solution (ECS) consisted of (in mM) 145 NaCl (replaced with 70 choline chloride for NaV1.4, NaV1.5 and NaV1.7), 4 KCl, 2 CaCl2, 1 MgCl2, 10 HEPES, and 10 glucose, pH to 7.4 with NaOH (adjusted to 305 mOsm/L with sucrose). For NaV recordings the intracellular solution (ICS) consisted of (in mM) 140 CsF, 1 EGTA, 5 CsOH, 10 HEPES, and 10 NaCl, pH to 7.3 with CsOH (adjusted to 320 mOsm/L with sucrose). For KV2.1 recordings the ICS consisted of (in mM) 50 KCl, 60 KF, 10 EGTA, 10 HEPES, 10 NaCl pH to 7.3 with KOH (adjusted to 320 mOsm/L with sucrose). […]
(§4) The time constant of fast inactivation (τ) was computed by fitting the current decay traces with a single exponential function using QPatch Assay Software 5.6 (Sophion). The time to peak was calculated from pulse onset to peak inward current using QPatch Assay Software 5.6 (Sophion).

[2] = test system: NaV1.4; assay: I-V protocol, whole-cell patch-clamp, NaV1.4; type: cell-based, human; settings: Eo1a 10 μM
Protocol: as §1, §2
(§5) The extracellular solution (ECS) consisted of (in mM) 145 NaCl (replaced with 70 choline chloride for NaV1.4, NaV1.5 and NaV1.7), 4 KCl, 2 CaCl2, 1 MgCl2, 10 HEPES, and 10 glucose, pH to 7.4 with NaOH (adjusted to 305 mOsm/L with sucrose). For NaV recordings the intracellular solution (ICS) consisted of (in mM) 140 CsF, 1 EGTA, 5 CsOH, 10 HEPES, and 10 NaCl, pH to 7.3 with CsOH (adjusted to 320 mOsm/L with sucrose). For KV2.1 recordings the ICS consisted of (in mM) 50 KCl, 60 KF, 10 EGTA, 10 HEPES, 10 NaCl pH to 7.3 with KOH (adjusted to 320 mOsm/L with sucrose). TTX (1 μM) was added to the ECS for NaV1.8 recordings to inhibit background endogenous TTX sensitive current in CHO cells.
(§6) I-V curves were obtained with a holding potential of −90 mV followed by a series of 500 ms step pulses that ranged from −110 to +80 mV in 5-mV increments (repetition interval 5 s) before and after 5 min incubation with Eo1a (10 μM). Conductance-voltage (G-V) curves were obtained by calculating the conductance (G) at each voltage (V) using equation G = I/(V − V rev ), where V rev is the reversal potential. G-V curves were fitted with a Boltzmann equation. […]
as §4

[3] = test system: NaV1.2; assay: I-V protocol, whole-cell patch-clamp, NaV1.2; type: cell-based, human; settings: Eo1a 10 μM
Protocol: as §1, §2, §3, §4

[4] = molecular target: NaV1.8 (Homo sapiens, UniProt Q9Y5Y9); assay: Concentration-response of NaV1.8 peak current, QPatch whole-cell patch-clamp; type: cell-based; settings: CHO cells, hNaV1.8/β3, holding −90 mV, 50 ms pulse to +10 mV every 20 s, 5 min incubation, ECS with 0.1% BSA, 1 μM TTX, pH 7.4, four-parameter Hill fit, mean ± SEM, n = 7 cells, read-out: EC50 for increase in NaV1.8 peak current
Protocol: as §1
as §2, with “2020]). […]” for “2020]).”

[5] = test system: NaV1.1; assay: I-V protocol, whole-cell patch-clamp, NaV1.1; type: cell-based, human; settings: Eo1a 10 μM
Protocol: as §1, §2, §5, §6, §4

NaV1.8, sequence (Q9Y5Y9 whole entry): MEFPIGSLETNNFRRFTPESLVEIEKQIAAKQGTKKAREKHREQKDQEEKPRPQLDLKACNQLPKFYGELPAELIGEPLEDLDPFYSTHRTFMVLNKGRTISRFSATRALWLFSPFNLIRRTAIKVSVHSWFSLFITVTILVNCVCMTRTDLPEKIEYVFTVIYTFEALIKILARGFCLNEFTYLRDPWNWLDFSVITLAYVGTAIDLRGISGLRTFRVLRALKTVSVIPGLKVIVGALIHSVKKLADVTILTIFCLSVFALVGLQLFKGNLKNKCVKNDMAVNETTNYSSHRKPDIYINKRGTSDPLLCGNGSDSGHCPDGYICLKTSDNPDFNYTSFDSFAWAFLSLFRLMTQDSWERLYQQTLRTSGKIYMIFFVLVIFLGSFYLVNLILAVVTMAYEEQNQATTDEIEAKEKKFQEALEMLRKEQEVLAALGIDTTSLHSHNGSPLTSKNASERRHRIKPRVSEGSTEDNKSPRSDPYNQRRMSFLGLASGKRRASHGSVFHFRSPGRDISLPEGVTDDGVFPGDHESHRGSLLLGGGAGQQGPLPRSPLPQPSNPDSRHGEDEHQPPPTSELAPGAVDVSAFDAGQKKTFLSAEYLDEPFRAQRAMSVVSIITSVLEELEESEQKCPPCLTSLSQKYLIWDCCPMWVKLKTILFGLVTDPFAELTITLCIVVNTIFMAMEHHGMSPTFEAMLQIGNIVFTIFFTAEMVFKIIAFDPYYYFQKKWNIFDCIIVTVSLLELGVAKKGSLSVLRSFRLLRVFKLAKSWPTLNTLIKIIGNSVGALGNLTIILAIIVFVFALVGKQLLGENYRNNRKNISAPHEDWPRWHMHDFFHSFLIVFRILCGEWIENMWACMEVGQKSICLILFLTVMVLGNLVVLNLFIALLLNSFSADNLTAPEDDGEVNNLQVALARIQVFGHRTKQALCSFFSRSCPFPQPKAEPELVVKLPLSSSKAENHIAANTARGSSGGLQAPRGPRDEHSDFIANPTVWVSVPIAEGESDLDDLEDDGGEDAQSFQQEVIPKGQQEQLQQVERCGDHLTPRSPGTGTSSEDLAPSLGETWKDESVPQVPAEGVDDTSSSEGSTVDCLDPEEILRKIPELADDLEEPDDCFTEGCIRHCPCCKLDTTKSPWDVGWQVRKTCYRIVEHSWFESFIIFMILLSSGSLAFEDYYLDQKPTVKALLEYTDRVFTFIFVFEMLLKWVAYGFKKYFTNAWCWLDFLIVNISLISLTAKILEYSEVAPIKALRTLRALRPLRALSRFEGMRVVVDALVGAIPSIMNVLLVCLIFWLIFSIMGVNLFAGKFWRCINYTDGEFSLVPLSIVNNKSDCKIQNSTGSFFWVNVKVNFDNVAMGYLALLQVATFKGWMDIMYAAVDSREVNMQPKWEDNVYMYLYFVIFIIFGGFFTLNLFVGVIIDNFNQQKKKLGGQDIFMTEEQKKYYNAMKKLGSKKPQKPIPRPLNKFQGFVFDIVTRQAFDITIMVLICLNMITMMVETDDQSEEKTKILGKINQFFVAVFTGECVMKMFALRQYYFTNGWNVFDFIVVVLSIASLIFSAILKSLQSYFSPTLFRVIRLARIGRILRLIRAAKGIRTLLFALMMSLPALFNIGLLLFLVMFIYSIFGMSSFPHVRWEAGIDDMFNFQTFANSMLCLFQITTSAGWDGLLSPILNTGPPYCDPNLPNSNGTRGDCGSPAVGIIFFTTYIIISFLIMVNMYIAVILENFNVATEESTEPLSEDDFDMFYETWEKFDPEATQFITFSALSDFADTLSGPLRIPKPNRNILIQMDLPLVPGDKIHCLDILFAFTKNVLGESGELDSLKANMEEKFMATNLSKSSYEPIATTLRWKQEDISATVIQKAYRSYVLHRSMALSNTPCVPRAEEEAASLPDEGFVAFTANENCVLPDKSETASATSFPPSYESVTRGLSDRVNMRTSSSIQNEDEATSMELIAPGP

## CC[C@H](C)[C@@H]1NC(=O)[C@H](CCCNC(=N)N)NC(=O)[C@@H]2CSSC[C@@H]3NC(=O)CNC(=O)CNC(=O)[C@H](CC(C)C)NC(=O)[C@H](Cc4ccccc4)NC(=O)[C@H](Cc4c[nH]c5ccccc45)NC(=O)[C@H](CCCNC(=N)N)NC(=O)[C@@H](NC(=O)[C@@H](N)CC(=O)O)CSSC[C@H](NC(=O)[C@H](CSSC[C@@H](C(=O)N[C@@H](C)C(=O)N[C@@H](Cc4c[nH]c5ccccc45)C(=O)N[C@@H](CC(=O)O)C(=O)NCC(=O)N[C@H](C(=O)N[C@@H](Cc4ccccc4)C(N)=O)[C@@H](C)O)NC(=O)[C@H](Cc4ccc(O)cc4)NC(=O)[C@H](CCCCN)NC(=O)[C@H]([C@@H](C)CC)NC(=O)[C@H](Cc4ccc(O)cc4)NC(=O)CNC(=O)[C@H](CC(=O)O)NC1=O)NC(=O)[C@H](CC(=O)O)NC(=O)[C@H](CO)NC(=O)[C@H](CC(=O)O)NC(=O)[C@H](CCCCN)NC(=O)[C@H](CO)NC3=O)C(=O)N[C@@H](CCCCN)C(=O)N[C@@H](Cc1c[nH]cn1)C(=O)N[C@@H](CC(C)C)C(=O)N[C@@H](C)C(=O)N2 [Eo1a] (H-DCRWFLGGCSKDSDCCKHLACRIDGYIKYCAWDGTF-NH2; disulfide 2-16, 9-21, 15-30 (inferred); N-terminus assumed)
[1]; 5 min, control −20.4 ± 2.2 mV, *p < 0.05, mean ± SEM, n = 4–6
  V1/2 activation: −27.9 mV
[1]; 5 min, control −63.2 ± 1.0 mV, mean ± SEM, n = 4–6
  V1/2 inactivation (steady-state fast inactivation): −63.0 ± 1.5
[1]; test pulse −20 mV
  effect on inactivation kinetics: minimal effect
[2]; 5 min, peak from I-V protocol at any voltage, normalised to buffer control, HEK293 hNaV1.4/β1, mean ± SEM, n = 4–6 cells
  peak current I/I0: 0.68 ± 0.04
[2]; NaV1.4, 5 min, control −27.6 ± 1.4 mV, mean ± SEM, n = 4–6
  V1/2 activation: −28.8 ± 1.2 mV
[2]; NaV1.4, 5 min, control −65.8 ± 1.3 mV, mean ± SEM, n = 4–6
  V1/2 inactivation (steady-state fast inactivation): −67.6 ± 1.2
[2]; NaV1.4, test pulse −20 mV
  effect on inactivation kinetics: minimal effect
[3]; 5 min, control −15.9 ± 1.2 mV, *p < 0.05, mean ± SEM, n = 4–6
  V1/2 activation: −21.3 mV
[3]; 5 min, control −54.6 ± 1.6 mV, mean ± SEM, n = 4–6
  V1/2 inactivation (steady-state fast inactivation): −52.7 ± 0.5
[3]; test pulse −20 mV
  effect on inactivation kinetics: minimal effect
[4]
  EC50: 894 ± 146 nM
[5]; 5 min, peak from I-V protocol at any voltage, normalised to buffer control, HEK293 hNaV1.1/β1, mean ± SEM, n = 4–6 cells
  peak current I/I0: 0.89 ± 0.03
[5]; NaV1.1, 5 min, control −21.5 ± 1.5 mV, mean ± SEM, n = 4–6
  V1/2 activation: −24.4 ± 2.1 mV
[5]; NaV1.1, 5 min, control −55.0 ± 1.1 mV, mean ± SEM, n = 4–6
  V1/2 inactivation (steady-state fast inactivation): −57.8 ± 2.0
[5]; NaV1.1, test pulse −20 mV
  effect on inactivation kinetics: minimal effect
